In patent US20050054559A1, “Compounds for sustained release of orally delivered drugs” (priority 2000, published 2005):

How the values were obtained:
in vivo = details: male, Sprague-Dawley, rat, po, 85.25 mg/kg
Experimental: (§1) The pharmacokinetics of the prodrug (4) were examined in rats. Three groups of four male Sprague-Dawley rats (approx 200 g) with jugular cannulae each received one of the following treatments: A) a single bolus intravenous injection of gabapentin (25 mg/kg, as a solution in water); B) a single oral dose of gabapentin (25 mg/kg, as a solution in water) administered by oral gavage; C) a single oral dose of (4) (85.25 mg/kg, as a solution in water) administered by oral gavage. Animals were fasted overnight prior to dosing and until 4 hours post-dosing. Serial blood samples were obtained over 24 hours following dosing and blood was processed for plasma by centrifugation. Plasma samples were stored at −80° C. until analyzed. Concentrations of (4) or gabapentin in plasma samples were determined by LC/MS/MS as described in Example 35. Plasma (50 μL) was precipitated by addition of […] of methanol and supernatent was injected directly onto the LC/MS/MS system. The method was linear for gabapentin over the concentration range 0.001 to 20 ng/mL and for (4) over the concentration range 0.01 to 10 ng/mL.
as §1, with “prodrug Cholyl-Phe-Gabapentin (7g)” for “prodrug (4)”, “of (7g) (103.5” for “of (4) (85.25”, “of (7g)” for “of (4)”, “or (2)” for “or gabapentin”, “described above.” for “described in Example 35.”, “system.” for “system. The method was linear for gabapentin over the concentration range 0.001 to 20 ng/mL and for (4) over the concentration range 0.01 to 10 ng/mL.”

IBAT [1] = target: T1, IBAT (Homo sapiens, UniProt Q12908); experiment: In vitro uptake by CHO cells transfected with IBAT, evaluated by LC-MS/MS; type: cell-based; set-up: expressed in transfected cells; host or cells: CHO cells; details: 0.06 to 1000 μM, 10 min
T1 sequence (Q12908 whole entry): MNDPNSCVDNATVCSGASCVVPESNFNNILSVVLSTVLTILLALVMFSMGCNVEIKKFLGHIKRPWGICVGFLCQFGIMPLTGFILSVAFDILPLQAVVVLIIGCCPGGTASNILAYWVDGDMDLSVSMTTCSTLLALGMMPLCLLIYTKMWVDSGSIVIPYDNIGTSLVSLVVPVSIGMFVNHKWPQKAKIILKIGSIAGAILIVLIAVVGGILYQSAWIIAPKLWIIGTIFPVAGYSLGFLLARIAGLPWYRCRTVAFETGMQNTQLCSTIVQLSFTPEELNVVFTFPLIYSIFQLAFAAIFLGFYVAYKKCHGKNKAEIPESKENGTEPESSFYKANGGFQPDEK
Experimental: Active transport of (4) by the bile acid transport system was evaluated in vitro by incubation of (4) or glycocholate (control substrate) with untransfected CHO K1 cells or CHO cells transfected with either IBAT or LBAT. Cells (10^5 cells/mL) were incubated in 96 well plates with varying concentrations (0.06 to 1000 μM) of (4) or glycocholate for 10 min. Cells were then washed with Hank's Balanced Salt Solution (HBSS) and lysed and extracted by addition of 100 μL of water followed by sonication. Concentrations of (4) or glycocholate in cell extracts were determined by direct injection onto an API 2000 LC/MS/MS equipped with an Agilent 1100 binary pump and autosampler. Separation was achieved using a Keystone BDS Hypersil 2×50 mm column heated to 45° C. during the analysis. The mobile phases were: 0.1% formic acid in water (A) and 0.1% formic acid in acetonitrile (B). The gradient condition was: 5% B for 1 min, increasing to 90% B in 0.2 min, maintained for 2.8 min and returning to 5% B for 2 min. A TurboIonSpray source was used on the API 2000. The analysis was performed in the positive ion mode and MRM transitions of 466/412 and 562/154 were used in the analysis of glycocholate and (4), respectively. Ten microliters of the cell extracts were injected. Peaks were integrated using Analyst quantitation software. […]

IBAT [2] = target: T1, IBAT; experiment: Inhibition of radiolabeled taurocholate uptake in IBAT-transfected CHO cells; type: cell-based; set-up: expressed in transfected cells; host or cells: CHO cells; details: radiolabeled competition assay in transporter-expressing CHO cells
Experimental: CHO cells transfected with either the IBAT or LBAT transporter were seeded into 96-well microtiter plates at 100,000 cells/well in 100 μL DMEM containing 10% serum, glutamine and Penstrep. After overnight incubation the media was removed and test compound (25 μL) added at 2× the final desired concentration. Tritiated taurocholate (50,000 CPM/well) was diluted with cold substrate to a final concentration of 5 μM and 25 μL/well of this mixture was added to the plate. After incubating for 1 h at room temperature the solution was removed and the plate washed 4× with PBS at 4° C. 200 μL/well of scintillant is added and the plate then read in a Wallac microbeta counter. The inhibition data is processed by standard methods to calculate an inhibition constant Ki for the test compound.

Compound: CC(CCC(=O)NCC1(CC(=O)O)CCCCC1)C1CCC2C3C(O)CC4CC(O)CCC4(C)C3CC(O)C12C (centres unmarked) [Compound (4)]
- concentrations of intact (4) in plasma sustained out to (in vivo): 24 h
- half-life (in vivo): > 12 h
- time of maximum concentration of intact (4) in plasma (in vivo): ~8 h
- Active uptake by bile acid transport system (IBAT [1]): Active uptake
- IC50 (IBAT [2]): 36 µM
